This is an account of results in patent US20070264241A1, “Compounds for Enhanced Cancer Therapy” (priority 2004, published 2007).

Entries after “also recorded” stand apart in the source; their conditions may differ.

Assay type in all cases: cell-based, human
The subject of experiment [1] is hGBM-1, hGBM-5 and hGBM-14 glioblastoma cultures. Kind of experiment: MTT assay of cell viability and proliferation in primary glioblastoma cultures. As for the experimental part:
Proliferation of cultured glioma cells was assessed by 3-(4,5-dimethylthiazol-2-yl)-2,5-diphenyltetrazolium bromide (MTT, Sigma) assay. MTT tetrazolium salt was dissolved in serum-free culture medium (0.5 mg/ml), added to the cells (150 μl/well) and incubated for 30 min at 37° C. Formazan dye, formed by viable cells, was solubilized in 300 μl of isopropanol. Aliquots (100 μl) of the solutions were transferred to 96-well microplates. The absorbance at 570 nm (with reference at 650 nm) was measured using a microtiter plate spectrophotometer (Anthos HT III). The results were expressed as percentage of viablecells compared to the control sample of untreated cells (100%).
For orientation: Tetrazolium assays rely on reduction of a dye to a coloured formazan, in cell work by metabolically active cells.

For experiment [2], the system named is GFAP in hGBM-1, hGBM-5 and hGBM-14 cells. Put plainly: GFAP expression by immunocytochemistry and Western blot in primary glioblastoma cultures. As for the experimental part: (§1) Tumour cells cultured on laminin/poly-ornithine coated glass chamber slides were washed in phosphate buffered saline (PBS) and fixed in 4% paraformaldehyde in phosphate buffer for 10 minutes. Cells were washed in PBS three times and incubated with primary antibodies diluted in buffer (0.3% TX-100 (Sigma), albumin fraction V (Sigma), phosphate buffer pH 7.0) over night at 4° C. Secondary antibodies conjugated with FITC or Cy3 (Jackson lmmunoresearch Laboratories) were applied for one hour at room temperature, followed by rinsing with PBS. Antibodies bound were visualized with epifluorescence microscopy using a Leica DMRB microscope, and photographs were taken using a Nikon F50 camera. The following antibodies were used at specified dilutions: monoclonal anti GFAP, 1:500 (DAKO), monodonal anti Cx43 (1:1000, Transduction Laboratories), and FITC (1:80)-conjugated secondary antibodies (Jackson lmmunoresearch Laboratories). Primary glioblastoma cells were grown to 75% confluency and cultured for 48 hours in the presence or absence of 4-PB (2, 5 and 10 mM) and processed as previously described (Asklund et al, Exp cell Res, 2003, 284:183-193). Briefly, cell extracts, containing equal amount of protein (30 μg/lane for Cx43 detection and 60 μg/lane for GFAP detection) were loaded on 10% polyacrylamide gels, separated by SDS-PAGE, and electro-transferred onto nitrocellulose membranes. A rabbit polyclonal antibody to Cx43 diluted 1:8000 (Sigma) or a mouse monoclonal antibody to GFAP diluted 1:1000 (Pharmingen) were applied overnight at 40° C. The detection step was performed with the enhanced chemiluminescence (ECL) detection kit (Amersham). The membranes were exposed to Hyperfilm-ECL (Amersham) for 1-5 min. For quantification, films were scanned and analysed with Image Gauge (version 3.12, Fuji Photo Film Corp.). Data analysis was performed using the program Sigma Plot for Windows (version 6, Jandel Corp.). All results are expressed as means ± SE for the indicated number of experiments (FIG. 6).
Background: Immunoblotting shows a protein as a band on a membrane.

The test system of experiment [3] is Cx43 in hGBM-1, hGBM-5 and hGBM-14 cells. Put plainly: Connexin 43 expression by immunocytochemistry and Western blot in primary glioblastoma cultures. As for the experimental part: as §1, with “Briefly, cell extracts, containing equal amount of protein (30 μg/lane for Cx43 detection and 60 μg/lane for GFAP detection) were loaded on 10% polyacrylamide gels, separated by SDS-PAGE, and electro-transferred onto nitrocellulose membranes. A rabbit polyclonal antibody to Cx43 diluted 1:8000 (Sigma) or a mouse monoclonal antibody to GFAP diluted 1:1000 (Pharmingen) were applied overnight at 40° C. The detection step was performed with the enhanced chemiluminescence (ECL) detection kit (Amersham). The membranes were exposed to Hyperfilm-ECL (Amersham) for 1-5 min.” left out, “Data analysis was performed using the program Sigma Plot for Windows (version 6, Jandel Corp.).” left out

Experiment [4] relates to gap junction communication in primary glioblastoma cells (hGBM-1). Put plainly: Fluorescent dye (calcein/Dil) transfer between primary glioblastoma cells. The conditions noted are these: recipient cells 5 mM 4-PB for 48 hours prior to dye transfer. The method, then: Primary glioblastoma cells were cultured on 35 mm petri dishes and in vitro labelled with 5 μM calcein-AM (acetomethylic ester) and 10 μM Dil (Molecular Probes) diluted in supplemented serum free medium DMEM/F12 and incubated for 30 min at 37° C. The cells were washed once with the same medium, trypsinized and suspended in the culture medium induding 10% FBS. The cells were pelleted by centrifugation at 1600 rpm for 1 minute and resuspended in fresh culture medium. The procedure was repeated twice. Following the second resuspension, the labelled cells were plated on top of unlabelled cells of the same origin. These cells were either pretreated with 4-PB at a concentration of 5 mM, or non-treated for serving as a control. The labeled cells were then allowed to settle for 1 hour, followed by analyses using epifluorescence detection microscopy every 30 minutes for up to 6 hours. GJC (gap-junction communication) were studied using an Olympus BX50WI microscope equipped with UV epifluorescence and red and green attenuating filters.

In experiment [5] the test system is gap junction communication between HNSC100 neural stem cells and glioblastoma cells. Put plainly: Fluorescent dye transfer between neural stem cells and glioma cells. The conditions noted are these: pre-treatment 48 hours with 4-PB, 0.5 mM (stem cells) and 2 mM (glioblastoma cells). The method, then: Donor human neural stem cells (1×10^5 HNSC100) and recipient human glioblastoma cells (1×10^5 U343MGa) cells were plated each in 4 separate 35 mm petri dishes. […] Donor cells were incubated with 10 μM Dil (a fluorescent lipophilic carbocyanine tracer; Molecular Probes) and 5 μM Calcein-AM (an acetoxymethyl ester derivative; Molecular Probes) for 20 min in complete medium. Cells were washed three times with culture medium and twice with PBS to remove free dye. After trypsinization, cells were pelleted by centrifugation and resuspended in co-culture medium. Donor cells 50% confluent were added to the plate of recipient cells. AGA treatment, when performed, was always continued throughout the experiment. Assessment of functional GJC by Calcein dye transfer from donor to recipient cells was carried out after 4 hours using an Olympus BX50WI microscope.

Experiment [6] relates to U87MG/tomato kinase positive cells. Kind of experiment: Synergistic cell killing effect of AZT and 4-PB. Particulars: 72 hours. As for the experimental part:
Medium was replaced by 300 μL of MTT solution (0.5mg/mL; Sigma # M 2128) per well and incubated at 37° C. for 30 minutes. The MTT solution was aspirated and 350 μL of isopropranol was added to dissolve the formazan product by gentle shaking. Three 100 μL aliquots of formazan solution from each well were pipetted into a 96-well microplate. Optical density was measured by Multiscan RMCC/340 plate reader (MicroELISA Reader) at 570 nm with reference at 650 nm. The results were expressed as percentage of live cells compared to control untreated cells (100%). The analyses were run as three independent experiments.

For the substance 4-phenylbutyrate [4-PB], the “anti-proliferative effect by phase contrast microscopy” value in experiment [1] (after 24 hours of treatment) is recorded as “Anti-proliferative effects were seen”. Besides, the “4-PB concentration at which the culture shows significant sensitivity (MTT)” value in experiment [1] (hGBM-1 culture) came to 5 mM. For the same substance, the “4-PB concentration at which the culture is significantly affected (MTT)” value in experiment [1] (hGBM-5 culture) and in experiment [1] (hGBM-14 culture) was 10 mM in each case. Also, in experiment [2] (4-PB 2, 5, 10 mM, 48 hours), the “phosphorylated isoform of GFAP (Western blot)” value is “remained stable”. For the same substance, the “GFAP immunostaining intensity (immunocytochemistry)” value in experiment [2] (all three cultures, 5 mM 4-PB for 48 hours) is “more intense immunostaining; also recorded: increased”. In addition, the “non-phosphorylated isoform of GFAP (Western blot)” value in experiment [2] (hGBM-5 and hGBM-14, 4-PB 2, 5, 10 mM, 48 hours) is reported as “upregulated; also recorded: increase”. Besides, the “Cx43 immunoreactivity at the cell surface (immunocytochemistry)” value in experiment [3] (5 mM 4-PB for 48 hours) is “marked increase”. Moreover, the “non-phosphorylated and phosphorylated isoforms of Cx43 (Western blot)” value in experiment [3] (4-PB 2-10 mM, 48 hours) is listed as “increased quantitatively; also recorded: marked increase”. Further, in experiment [4], the “intercellular spread of calcein (gap junction dye transfer)” value is “markedly improved; also recorded: facilitated gap junction dependent calcein transfer substantially”. In experiment [5], the “dye transfer from neural stem cells to glioblastoma cells” value is “can induce such gap junction communication; also recorded: substantially enhanced”. Also, in experiment [6] (15 μM AZT and 0.5 mM 4-PB), the “combination effect on cell killing” value was “clear additive or synergistic effects”. In experiment [6] (15 μM AZT, 4-PB 0.5-8 mM), the “effect of 4-PB on cell killing by AZT” value is recorded as “enhanced the effects of AZT”.
